# Reference: patent US11896586B2, “Apixaban formulations” (Bristol-Myers Squibb Company, priority 2018, dated 2024)
# Assay: Dissolution of apixaban in SLD coating solvent, monitored in situ by UV probe
# Format: physicochemical
# Protocol: Three aliquots of ethanol were dispensed. Apixaban was added to the first portion (1464 g) with stirring. This suspension was then added to a 20 L mixing vessel. To ensure complete API transfer, the remaining aliquots of ethanol (two aliquots of approximately 2600 g each) were used to rinse the suspension container surfaces and were subsequently added to the 20 L mixing vessel in step-wise fashion. The apixaban/ethanol solution was stirred using an overhead mixer at approximately 500 rpm for 50 minutes. Dissolution of apixaban in ethanol was monitored in-situ using a UV probe (absorbance range 278-282 nm, 2 mm tip opening, measure rate 1 s^−1).
smiles,measurement,setting,value
"COc1ccc(-n2nc(C(N)=O)c3c2C(=O)N(c2ccc(N4CCCCC4=O)cc2)CC3)cc1 [apixaban, 1-(4-methoxyphenyl)-7-oxo-6-[4-(2-oxo-1-piperidinyl)phenyl]-4,5,6,7-tetrahydro-1H-pyrazolo[3,4-c]pyridine-3-carboxamide]",Time to full dissolution of apixaban,"ethanol, measured at 0.15 mgA/mL, UV 278-282 nm",less than 10 minutes
same,Time to full dissolution of apixaban,"ethanol/water/HPMC solution, apparent concentration 0.21 mgA/g, UV 280 nm",less than 10 minutes
